These results are taken from patent US20260275280A1, “DIRECTED DIFFERENTIATION PROTOCOLS TO DERIVE BONE FIDE SPINAL SENSORY INTERNEURONS” (THE REGENTS OF THE UNIVERSITY OF CALIFORNIA, priority 2022, published 2026).

What all share (assay type): cell-based, mouse
Test [1] deals with mESCs derived spinal NPCs. In words: Sufficiency of Wnt ligands or CHIR for dI fates (RT-qPCR at day 9). On the procedure:
The mouse ESC line, MM13, was routinely maintained in ES cell media (DMEM+20% FBS) with 100u/ml of mouse leukocyte inducing factor (LIF). […] To prepare cells for the differentiation, ESC colonies were dissociated with 0.25% trypsin and plated on gelatin coated plates at 1:10 dilution to reduce MEF transfer. Cells cultured on gelatin coated plates and allowed to proliferate for 1-2 days. To initiate differentiation, cells were plated on 0.1% gelatin coated 24-well CellBIND dishes (Corning) at 20,000 cells/ml density in 0.5 ml/well N2/B27 medium that contains 10 ng/ml basic fibroblast growth factor (bFGF). The N2/B27 medium contains 1:1 portions of Advanced Dulbecco's modified Eagle Media (DMEM) F12 (Hyclone) and Neurobasal media (Thermo Fisher Scientific) supplemented with 0.5×N2, 1×B27 supplement (with Vitamin A), 2 mM L-glutamine, 0.1 mM 2-mercaptoethanol (ME), and 1% BSA. On day 1, small colonies of cells can be observed attached to the bottom of the wells. On day 2, cells were supplemented with 10 ng/ml bFGF and 5 μM CHIR99021 for 24 hours to induce a neuromesodermal identity (Gouti et al., 2014). On day 3, media was changed as follows: for protocol 1, cells were exposed to 100 nM RA for 48 hrs. For protocol 2, 10 ng/ml human recombinant BMP4 (Thermo Fisher Scientific) was added concomitantly with 100 nM RA (RA+BMP4) for 48 hrs. For protocol 3, cells were exposed to 100 nM RA for 24 hrs, followed by a pulse of RA+BMP4 for another 24 hours. To induce terminal differentiation in all three conditions, the medium containing growth factors was replaced with basic N2/B27 medium at day 5, and cell allowed to differentiate to day 9. At the end of the differentiation, the cultures were fixed for immunohistochemical analysis or lysed to obtain RNA for RNA-Seq or quantitative reverse transcriptase PCR analysis.
(§1) Quantitative (a) RT-PCR analysis: RNA was isolated with RNeasy Mini Kit (Qiagen, cat no. 74104), and converted to cDNA using Superscript IV First Strand Synthesis kit (Thermo Fisher Scientific). qRT-PCR was performed using SYBR Green PCR Master Mix (Applied Biosystems) on Roche 480 Lightcycler (Roche). The relative fold expression was calculated using 2-AACt method of comparing the expression of the target gene with that of the housekeeping gene glyceraldehyde 3-phosphate dehydrogenase (Gapdh). All experiments were repeated at least 2-3 times (technical replicates) from at least two independent differentiations (biological replicates), and data is represented as mean±SEM.
We assessed these models, first by determining the effect of canonical Wnts (Wnt1, Wnt2, and Wnt3a), a non-canonical Wnt (Wnt9b) and a small molecule Wnt agonist (CHIR99021) on dI identity in the RA±BMP4 protocols. When Wnts were added in combination with RA, they were unable to induce the dorsal-most dIs by day 9 (FIG. 14A). […] Thus, Wnts are not sufficient to direct dI fate identity.
In general terms: In qPCR the cycle at which signal appears reflects the starting amount.

Test [2] deals with CHIR-expanded EBs. Description: Differentiation of CHIR-expanded EBs on Matrigel (IHC, RT-qPCR at day 10). The protocol:
Embryoid body (EB) differentiation: To induce differentiation, EBs were dissociated into smaller clumps by a 5-7-minute treatment with cold 0.25% Trypsin (Gibco), followed by trituration. Trypsin was neutralized with 1:1 addition of Trypsin inhibitor (Sigma-Aldrich) and cells were pelleted by centrifugation at 1000RPM. Cell pellets were resuspended in N2/B27 medium (without growth factors) and plated onto a Matrigel precoated plate. In our experience, the single cell suspension of 100-150 EBs provided enough cells to seed one 24-well plate. […] At the end of 10 days, multiple neural processes can be visualized by phase contrast microscopy and cultures were either fixed with 4% PFA for immunohistochemistry or lysed to extract RNA in RLT buffer (Qiagen). […] CHIR withdrawal), or DAPT, a pro-differentiation agent (Crawford and Roelink, 2007) (FIG. 7J). […] This strategy was successful at restoring almost all dI identities in cultures taken from EBs both at the earliest passage and at the latest passage assessed (passage 7;

The test system of test [3] is mESCs-derived NMPs / NPCs. In words: Bulk RNA-Seq differential expression and qRT-PCR after RA or RA+BMP4 treatment. On the procedure: Bulk-RNA sequencing and data processing: Total cell lysate was obtained in buffer RLT (Qiagen) at different time points from three independent differentiations (biological replicates) conducted parallelly. RNA extraction was performed using RNeasy mini kit (Qiagen) and the quality was determined using Agilent Technologies 2100 Bioanalyzer and only samples with a RIN score >8.0 were sequenced. Stranded libraries were constructed using Universal plus mRNA sequencing kit (NuGEN) and sequenced onto 2 lanes of NovaseqS1 to generate 30 million reads/sample. Obtained reads were aligned to the latest mouse reference genome (mm10) using the STAR spliced read aligner. Pearson correlation and principal component analysis (PCA) was performed to determine the similarities among the samples and replicates. Differentially expressed genes were identified using DESeq and EdgeR package on R platform. The candidate genes were selected using cutoff false discovery rate (FDR <0.05) and log fold change (>2). Differentially expressed gene lists were further subjected to Enrichr, Metascape (Zhou et al., 2019) and DAVID functional annotation tools to identify enriched gene ontology (GO) categories.
as §1
We took advantage of the directed differentiation protocols to investigate the unresolved mechanisms by which RA and BMP direct dI fate specification. To further validate the use of a stem cell model, we first assessed the genetic basis of the fate decisions mediated by RA signaling. During the 24 hr pulse of RA at day 3, Pax3 levels gradually increase, while T expression concomitantly declines (FIG. 12A). […] To identify the transcriptional changes occurring during this first commitment step, we performed bulk RNA-Seq at day 3 (NMP state), day 3.25 (early transcriptional response to RA) and day 4 (dP state1) (FIG. 11B).
We hypothesized that the addition of BMP4 to NPCs in dP state1, directs them to a more dorsal dP state, i.e. dP state2 (FIG. 11A). To define the transcriptional changes occurring after BMP4 addition, we performed bulk RNA-Seq at day 4 (dP state1), day 4.25 (early transcriptional response to RA+BMP4) and at day 5 (dP state2) (FIG. 4A). […] 78 genes, out of 411, were common between both time points (FIGS. 4B, 13B). Focusing on these common genes, we identified enriched functional processes using GO analyses. The GO terms included the BMP signaling pathway (FIG. 4C, Table 3), confirming that the analysis identified BMP responsive genes.

The mark [4] stands for this setting: 6 hrs of RA treatment (day 3.25) vs day 3 NMP state.
Where [5] appears, read: 24 hours of RA exposure (day 4) vs day 3.

SMILES strings stand for the structures.

With `Cc1c[nH]c(-c2cnc(NCCNc3ccc(C#N)cn3)nc2-c2ccc(Cl)cc2Cl)n1` [CHIR, CHIR99021], the “identity of the BMP4-mediated dI fates (Lhx2, Foxd3, IsI2)” value in test [1] (RA+BMP4 protocol, Wnts 100 ng/ml or CHIR 5 μM for 24 hrs at day 5) is recorded as “no significant effect”. For the same compound, the “induction of BMP4 dependent dI fates (Lhx2, Foxd3, IsI1)” value in test [1] (added with RA at day 4 for 24 hrs, Wnts 100 ng/ml, CHIR 5 μM) is on record as “do not induce BMP4-dependent dI fates”. The “identity of cultures kept in CHIR by day 10” value in test [2] (passage 6 or 7 EBs dissociated onto Matrigel) is “continued to be solely Sox2^+”. The “effect of CHIR removal on differentiation” value in test [2] (passage 6 or 7 EBs, day 10) was “removal of CHIR triggers spontaneous neural differentiation”.
In test [3] (setting [4]), `CC1=C(/C=C/C(C)=C/C=C/C(C)=C/C(=O)O)C(C)(C)CCC1` [RA, retinoic acid] gave a genes significantly downregulated of 19 genes and a genes significantly upregulated of 138 genes. Moreover, in test [3] (setting [5]), the genes significantly downregulated stood at 590 genes and the genes significantly upregulated turned out to be 389 genes. Also, the “genes upregulated compared to day 4 control (no RA treatment)” value in test [3] (24 hr treatment of 100 nM RA) came to 911 genes. In addition, in test [3] (day 3, day 3.25, day 4 of RA treatment), the “genes whose expression levels are altered in total” value was determined as 979 genes. The “increase in the number of dI4/dI6s (Pax2+) compared to control” value in test [2] (pulse between day 3 and 5 during differentiation of expanded EBs) is given as ~ 6 fold.
